Measured values taken from article PMC8624038, “Understanding the Mechanism of Action of NAI-112, a Lanthipeptide with Potent Antinociceptive Activity” (Molecules, 2021).
Read-outs that look alike come from different tables or passages of the source.

Assays:
[1] = cited from earlier work
[2] = test system: S. aureus mutant strain R8.1; experiment: microbe, parasite or virus in culture; assay type: cell-based, Staphylococcus aureus; settings: for MIC: 24 h
Protocol: (§1) All experiments were performed with S. aureus ATCC6538P. The strain was propagated at 37 °C in Mueller–Hinton Broth (BD Difco^TM) containing 20 mg/L of CaCl2 and 10 mg/L of MgCl2 (MHBC medium). For selection of resistant strains by direct plating, S. aureus cultures were grown until OD600 of 0.7, corresponding to 5 × 10^8 CFU/mL, centrifuged, and resuspended with fresh medium to 1 × 10^10 CFU/mL. Then, 100 µL were spread on Muller–Hinton Agar (BD Difco^TM) supplemented with 160 µg/mL or 640 µg/mL of NAI-112 and incubated at 37 °C. Colonies were scored after 10 days. For selection of resistant mutants by serial passages, MHBC medium containing serial, twofold dilutions of NAI-112, starting from 512 µg/mL down to 0.5 µg/mL, was inoculated with 1 × 10^5 CFU/mL in a 96-well microtiter plate. Cultures were incubated overnight at 37 °C. The culture at the highest concentration that supported growth was diluted to 1 × 10^5 CFU/mL with fresh medium and added to a fresh plate containing serial dilutions of NAI-112 as before, followed by overnight incubation. This process was continued for 15 passages. From cultures at passage 8 (grown at 64 µg/mL) and passage 15 (grown at 256 µg/mL), single colonies were isolated and named R8.1 and R8.2 (from the eighth series) and R15.1–15.5 (from the fifteenth series).
(§2) MICs were determined by the broth microdilution methodology in sterile 96-well microtiter plates according to Clinical and Laboratory Standards Institute (CLSI) guidelines, as described by Iorio et al.. When indicated, bovine serum albumin was added to MHBC medium at 0.02% (w/v). […] Growth curves were measured under the same conditions by recording the optical density at 595 nm (OD595) over 20 h using a Synergy 2.0 plate reader (BioTeck, Winooski, VT, USA).

S. aureus ATCC6538P (wt) = experiment: microbe, parasite or virus in culture; assay type: cell-based, Staphylococcus aureus; settings: 24 h
Protocol: as §1, §2

[3] = test system: S. aureus mutant strain R15.5; experiment: microbe, parasite or virus in culture; assay type: cell-based, Staphylococcus aureus; settings: for MIC: 24 h; for MIC Ratio (R15.1 to wt): ratio of MICs, mutant to wt
Protocol: as §1, §2

[4] = class II lantibiotics; ref [29],[30],[31],[32]; cited from earlier work
Description: A few studies have identified the molecular targets of lanthipeptides. […] Two-peptide lantibiotics, ...

TRPV1 [5] = settings: ref [24], cited from earlier work
Description: The results from the lipidomic experiments in mice, from the binding assay analyzed in MS and from the analysis of the S. aureus mutants resistant to NAI-112, are consistent with the hypothesis that NAI-112 binds to one or more phosphate-containing lipids and, by doing so, interferes with the processing of these lipids by relevant enzymes. In mice, this interference translates in lower LPA levels.

TRPV1 [6] = settings: cited from earlier work
Description: In mice, this interference translates in lower LPA levels.

neuropathic pain = settings: ref [7]; cited from earlier work
Description: (§3) NAI-112 is a labionine (Lab)-containing lanthipeptide with a glycosylated tryptophan residue and an unusual methyl-Lab bridge. It was discovered in a phenotypic screening program for inhibitors of bacterial cell wall biosynthesis. […] At the time of its discovery, there was only one precedent of Lab-containing lanthipeptides, the labyrinthopeptins. In particular, despite having unrelated amino acid sequences, NAI-112 and labyrinthopeptin A2 share a similar ri ...

virus = settings: ref [7]; cited from earlier work
Description: as §3

[7] = class I lanthipeptides, followed by pore formation or membrane disruption, ref [25],[26],[27]

In the case of lacticin 3147, the “complex with lipid II” value ([1]; through mersacidin-like component, ref [33]) is listed as “form a complex with lipid II”.

`CO[C@H]1/C=C/O[C@@]2(C)Oc3c(C)c(O)c4c(O)c(c(/C=N/N5CCN(C)CC5)c(O)c4c3C2=O)NC(=O)/C(C)=C\C=C\[C@H](C)[C@H](O)[C@@H](C)[C@@H](O)[C@@H](C)[C@H](OC(C)=O)[C@@H]1C` [Rifampicin, rifampicin] showed an MIC ([2]; Staphylococcus aureus) of 0.004 µg/mL, an MIC (S. aureus ATCC6538P (wt); Staphylococcus aureus, ATCC6538P, wt, MHBC medium, 1 × 10^5 CFU/mL, 37 °C, broth microdilution (CLSI), read-out: MIC) of 0.004 µg/mL and an MIC ([3]; Staphylococcus aureus) of 0.004 µg/mL. The “MIC Ratio (R15.1 to wt)” value [3] was 1.

For `CC[C@H]1OC(=O)[C@H](C)[C@@H](O[C@H]2C[C@@](C)(OC)[C@@H](O)[C@H](C)O2)[C@H](C)[C@@H](O[C@@H]2O[C@H](C)C[C@H](N(C)C)[C@H]2O)[C@](C)(O)C[C@@H](C)C(=O)[C@H](C)[C@@H](O)[C@]1(C)O` [Erythromycin, erythromycin], the MIC ([2]; Staphylococcus aureus) was 0.125 µg/mL, the MIC (S. aureus ATCC6538P (wt); Staphylococcus aureus, ATCC6538P) was 0.125 µg/mL and the MIC ([3]; Staphylococcus aureus) was 0.125 µg/mL. For the same molecule, the “MIC Ratio (R15.1 to wt)” value [3] was 1.

With ramoplanin the “shift in MIC relative to wt, in words” value ([2]; R8.1) was “modest but consistent shift”, the MIC ([2]; R8.1, in the presence of 0.02% BSA, MHBC medium, 1 × 10^5 CFU/mL, 37 °C) was 0.25 µg/mL and the MIC (S. aureus ATCC6538P (wt); wt, in the presence of 0.02% BSA, MHBC medium, 1 × 10^5 CFU/mL, 37 °C) was 0.06 µg/mL. For the same molecule, the “shift in MIC relative to wt, in words” value ([3]; R15.5) was “modest but consistent shift”, the MIC ([3]; R15.5, in the presence of 0.02% BSA, MHBC medium, 1 × 10^5 CFU/mL, 37 °C) was 0.25 µg/mL and the “MIC Ratio (R15.1 to wt)” value ([3]; in the presence of 0.02% BSA) was 4. The “binding to lipid II” value ([1]; ref [14],[15]) was “bind to the essential peptidoglycan precursor lipid II”.

With `CN[C@H](CC(C)C)C(=O)N[C@H]1C(=O)N[C@@H](CC(N)=O)C(=O)N[C@H]2C(=O)N[C@H]3C(=O)N[C@H](C(=O)N[C@H](C(=O)O)c4cc(O)cc(O)c4-c4cc3ccc4O)[C@H](O)c3ccc(c(Cl)c3)Oc3cc2cc(c3O[C@@H]2O[C@H](CO)[C@@H](O)[C@H](O)[C@H]2O[C@H]2C[C@](C)(N)[C@H](O)[C@H](C)O2)Oc2ccc(cc2Cl)[C@H]1O` [Vancomycin, vancomycin] the “shift in MIC relative to wt, in words” value ([2]; R8.1) was “modest but consistent shift”, the MIC ([2]; R8.1, MHBC medium, 1 × 10^5 CFU/mL, 37 °C, broth microdilution (CLSI)) was 1 µg/mL and the MIC (S. aureus ATCC6538P (wt); wt, MHBC medium, 1 × 10^5 CFU/mL, 37 °C, broth microdilution (CLSI)) was 0.5 µg/mL. The “shift in MIC relative to wt, in words” value ([3]; R15.5) was “modest but consistent shift”, the MIC ([3]; R15.5, MHBC medium, 1 × 10^5 CFU/mL, 37 °C, broth microdilution (CLSI)) was 2 µg/mL and the “MIC Ratio (R15.1 to wt)” value [3] was 4. For the same molecule, the “binding to lipid II” value ([1]; ref [14],[15]) was “bind to the essential peptidoglycan precursor lipid II”.

In the case of nisin, the “binding to lipid II” value [1, 7] is given as “bind to lipid II” and the “binding to pyrophosphate cage of lipid II” value ([1]; in membranes of bacterial cells, ref [34]) is given as “binding of nisin to the pyrophosphate cage of lipid II”.

In the case of cinnamycin, the “binding to phosphatidylethanolamine-containing lipids” value [4] is listed as “bind to phosphatidylethanolamine-containing lipids”.

For mersacidin, the “binding to lipid II” value ([1]; class II lantibiotics, ref [28]) is listed as “bind to lipid II”.

For lysophosphatidic acid [LPA], the acute pain-like behaviors (TRPV1 [5]; Trpv1-null animals) is listed as “substantially reduced”, the acute pain-like behaviors (TRPV1 [5]; control mice) is listed as “produces acute pain-like behaviors” and the TRPV1 receptor activation (TRPV1 [6]; ref [10],[11]) is listed as “activates the TRPV1 receptor”. The “direct binding to TRPV1 ion channel” value (TRPV1 [6]; ref [24]) was “LPA binding directly to an ion channel”.

In the case of labyrinthopeptin A2, the “activity in a neuropathic pain model” value (neuropathic pain) is listed as “highly active” and the antiviral activity (virus) is listed as “moderate antiviral activity”.

In the case of duramycin, the “binding to phosphatidylethanolamine-containing lipids” value [4] is listed as “bind to phosphatidylethanolamine-containing lipids”.

In the case of gallidermin, the “binding to lipid II” value [1, 7] is listed as “bind to lipid II”.
